Experimental data taken from the supplement of paper PMC10307832.

Key:
Experiment in all cases: relative viability (nuclei count vs DMSO), 5 days (fraction); higher = more cells survive
BAM7 + Olaparib = compound: CCOC1=CC=CC=C1N=NC2=C(NN(C2=O)C3=NC(=CS3)C4=CC=CC=C4)C [BAM7] + O=C(c1cc(Cc2n[nH]c(=O)c3ccccc23)ccc1F)N1CCN(C(=O)C2CC2)CC1 [Olaparib] (partner 8 µM)
Outline: (§1)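 After 5 days of treatment, lung cancer cells in 1536-well plates were fixed and stained in a single step (final 0.05% Triton X-100, 1% formaldehyde, 1 ug/ml Hoechst) and their nuclei counted on 4× images. Treatment had been applied by pin tool the day after seeding as one drug alone or as a fixed anchor-drug dose with five library-drug doses (not always all listed) in √10 steps. Relative viability is the nuclei count of treated wells divided by that of vehicle wells, and values are medians of duplicate plates.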

[1] = compound: CCn1c(-c2nonc2N)nc2c(C#CC(C)(C)O)ncc(OC[C@H]3CCCNC3)c21 + Nc1ncn([C@H]2C[C@H](O)[C@@H](CO)O2)c(=O)n1 [Decitabine] (partner 2 µM)
Outline: as §1

BAM7 + Lapatinib = compound: CCOC1=CC=CC=C1N=NC2=C(NN(C2=O)C3=NC(=CS3)C4=CC=CC=C4)C [BAM7] + CS(=O)(=O)CCNCc1ccc(-c2ccc3ncnc(Nc4ccc(OCc5cccc(F)c5)c(Cl)c4)c3c2)o1 [Lapatinib] (partner 2 µM)
Outline: as §1

[2] = compound: CCn1c(-c2nonc2N)nc2c(C#CC(C)(C)O)ncc(OC[C@H]3CCCNC3)c21 + Cc1cc(Nc2cc(N3CCN(C)CC3)nc(Sc3ccc(NC(=O)C4CC4)cc3)n2)n[nH]1 [Tozasertib] (partner 0.1 µM)
Outline: as §1

Row | Cell Line | relative viability (BAM7 + Olaparib; first compound 0.5 µM) | relative viability (BAM7 + Olaparib; first compound 5 µM) | relative viability (BAM7 + Olaparib; first compound 15.81 µM) | relative viability (BAM7 + Olaparib; first compound 50 µM) | relative viability ([1]; first compound 0.01 µM) | relative viability ([1]; first compound 0.03162 µM) | relative viability ([1]; first compound 0.1 µM) | relative viability ([1]; first compound 0.3162 µM) | relative viability ([1]; first compound 1 µM) | relative viability (BAM7 + Lapatinib; first compound 0.5 µM) | relative viability (BAM7 + Lapatinib; first compound 5 µM) | relative viability (BAM7 + Lapatinib; first compound 15.81 µM) | relative viability (BAM7 + Lapatinib; first compound 50 µM) | relative viability ([2]; first compound 0.01 µM) | relative viability ([2]; first compound 0.03162 µM) | relative viability ([2]; first compound 0.1 µM) | relative viability ([2]; first compound 0.3162 µM) | relative viability ([2]; first compound 1 µM)
1 | SK-MES-1 | 0.82 | 0.703 | 0.613 | 0.704 | 0.329 | 0.397 | 0.399 | 0.353 | 0.378 | 0.488 | 0.438 | 0.423 | 0.505 | 0.858 | 0.835 | 0.894 | 0.854 | 0.856
2 | SW 1573 | 0.574 | 0.583 | 0.461 | 0.46 | 0.462 | 0.388 | 0.448 | 0.42 | 0.337 | 1.17 | 1.23 | 1.09 | 1.33 | 0.175 | 0.179 | 0.178 | 0.201 | 0.14
